PubChem BioAssay (NCI)
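Protocol summary: plate cells (96-well), add compound at 5 concentrations, incubate 48 h, interpolate endpoints linearly. At the GI50, growth is halved. The concentration for full growth arrest is given as TGI.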

system: SK-OV-3 ovarian; assay: growth of human tumour cells (NCI), 48 h

| SMILES | TGI [µM] | GI50 [µM] |
| --- | --- | --- |
| COCCCNc1nc(N)c(C#N)c(C#N)c1C#N | > 10 | – |
| CC1CCCCNC1=S (stereo not given) | > 10 | – |
| CCOC(=O)c1ccc(N[C@@H]2c3cc4c(cc3C(c3cc(OC)c(O)c(OC)c3)[C@H]3C(=O)OCC32)OCO4)cc1O (stereo not given in full) | 2.2 | – |
| CC1CC2=C(S(=O)(=O)c3ccccc3)CC(S(=O)(=O)c3ccccc3)(S(=O)(=O)c3ccccc3)CC21 (stereo not given) | > 100 | – |
| CCC(C)NC1=NCC(C)S1 (stereo not given) | > 100 | – |
| Clc1ccc(C[P+](c2ccccc2)(c2ccccc2)c2ccccc2)c(Cl)c1 | 24.4 | – |
| COc1ccccc1CNCCCN1C(=O)c2ccc3c4c(ccc(c24)C1=O)C(=O)N(CCCNCCNCCCN)C3=O | 26.3 | 4.04 |
| NNC(=O)c1c(SCc2ccccc2)nc2c3ccccc3ccn12 | > 100 | – |
| COc1cc2oc(-c3ccc(O)cc3)c(OC)c(=O)c2c(O)c1OC | > 100 | 49.6 |

system: CAKI-1 renal; assay: growth of human tumour cells (NCI), 48 h

| SMILES | TGI [µM] | GI50 [µM] |
| --- | --- | --- |
| COCCCNc1nc(N)c(C#N)c(C#N)c1C#N | > 10 | – |
| CCOC(=O)c1ccc(N[C@@H]2c3cc4c(cc3C(c3cc(OC)c(O)c(OC)c3)[C@H]3C(=O)OCC32)OCO4)cc1O (stereo not given in full) | 3.26 | – |
| CCC(C)NC1=NCC(C)S1 (stereo not given) | > 100 | – |
| COc1ccccc1CNCCCN1C(=O)c2ccc3c4c(ccc(c24)C1=O)C(=O)N(CCCNCCNCCCN)C3=O | > 100 | 21.7 |
| NNC(=O)c1c(SCc2ccccc2)nc2c3ccccc3ccn12 | 87.9 | – |
| COc1cc2oc(-c3ccc(O)cc3)c(OC)c(=O)c2c(O)c1OC | > 100 | 45.1 |
| C[C@@H]1Nc2cc(NC(=O)OCCF)nc(N)c2N=C1c1ccccc1 | – | < 0.0001 |

system: OVCAR-4 ovarian; assay: growth of human tumour cells (NCI), 48 h

| SMILES | TGI [µM] | GI50 [µM] |
| --- | --- | --- |
| COCCCNc1nc(N)c(C#N)c(C#N)c1C#N | > 10 | – |
| CCOC(=O)c1ccc(N[C@@H]2c3cc4c(cc3C(c3cc(OC)c(O)c(OC)c3)[C@H]3C(=O)OCC32)OCO4)cc1O (stereo not given in full) | > 100 | – |
| CC1CC2=C(S(=O)(=O)c3ccccc3)CC(S(=O)(=O)c3ccccc3)(S(=O)(=O)c3ccccc3)CC21 (stereo not given) | > 100 | – |
| Clc1ccc(C[P+](c2ccccc2)(c2ccccc2)c2ccccc2)c(Cl)c1 | 35.6 | – |
| COc1ccccc1CNCCCN1C(=O)c2ccc3c4c(ccc(c24)C1=O)C(=O)N(CCCNCCNCCCN)C3=O | 1.68 | 0.466 |
| NNC(=O)c1c(SCc2ccccc2)nc2c3ccccc3ccn12 | 68.6 | – |
| COc1cc2oc(-c3ccc(O)cc3)c(OC)c(=O)c2c(O)c1OC | > 100 | 99.2 |
| C[C@@H]1Nc2cc(NC(=O)OCCF)nc(N)c2N=C1c1ccccc1 | > 100 | > 100 |

system: SK-MEL-5 melanoma; assay: growth of human tumour cells (NCI), 48 h

| SMILES | TGI [µM] | GI50 [µM] |
| --- | --- | --- |
| COCCCNc1nc(N)c(C#N)c(C#N)c1C#N | > 10 | – |
| CC1CCCCNC1=S (stereo not given) | > 10 | – |
| CCOC(=O)c1ccc(N[C@@H]2c3cc4c(cc3C(c3cc(OC)c(O)c(OC)c3)[C@H]3C(=O)OCC32)OCO4)cc1O (stereo not given in full) | 3.02 | – |
| CC1CC2=C(S(=O)(=O)c3ccccc3)CC(S(=O)(=O)c3ccccc3)(S(=O)(=O)c3ccccc3)CC21 (stereo not given) | > 100 | – |
| CCC(C)NC1=NCC(C)S1 (stereo not given) | > 100 | – |
| Clc1ccc(C[P+](c2ccccc2)(c2ccccc2)c2ccccc2)c(Cl)c1 | 3.38 | – |
| COc1ccccc1CNCCCN1C(=O)c2ccc3c4c(ccc(c24)C1=O)C(=O)N(CCCNCCNCCCN)C3=O | 3.02 | 1.57 |
| NNC(=O)c1c(SCc2ccccc2)nc2c3ccccc3ccn12 | 28.3 | – |
| COc1cc2oc(-c3ccc(O)cc3)c(OC)c(=O)c2c(O)c1OC | > 100 | 70.1 |
| C[C@@H]1Nc2cc(NC(=O)OCCF)nc(N)c2N=C1c1ccccc1 | < 0.0001 | – |

system: M14 melanoma; assay: growth of human tumour cells (NCI), 48 h

| SMILES | TGI [µM] | GI50 [µM] |
| --- | --- | --- |
| COCCCNc1nc(N)c(C#N)c(C#N)c1C#N | > 10 | – |
| CC1CCCCNC1=S (stereo not given) | > 10 | – |
| CC1CC2=C(S(=O)(=O)c3ccccc3)CC(S(=O)(=O)c3ccccc3)(S(=O)(=O)c3ccccc3)CC21 (stereo not given) | > 100 | – |
| CCC(C)NC1=NCC(C)S1 (stereo not given) | > 100 | – |
| Clc1ccc(C[P+](c2ccccc2)(c2ccccc2)c2ccccc2)c(Cl)c1 | 14.3 | – |
| COc1ccccc1CNCCCN1C(=O)c2ccc3c4c(ccc(c24)C1=O)C(=O)N(CCCNCCNCCCN)C3=O | 4.49 | 2.07 |
| NNC(=O)c1c(SCc2ccccc2)nc2c3ccccc3ccn12 | 41.2 | – |
| COc1cc2oc(-c3ccc(O)cc3)c(OC)c(=O)c2c(O)c1OC | > 100 | 47.2 |

system: MALME-3M melanoma; assay: growth of human tumour cells (NCI), 48 h

| SMILES | TGI [µM] | GI50 [µM] |
| --- | --- | --- |
| COCCCNc1nc(N)c(C#N)c(C#N)c1C#N | > 10 | – |
| CC1CCCCNC1=S (stereo not given) | > 10 | – |
| CCOC(=O)c1ccc(N[C@@H]2c3cc4c(cc3C(c3cc(OC)c(O)c(OC)c3)[C@H]3C(=O)OCC32)OCO4)cc1O (stereo not given in full) | 14.2 | – |
| CCC(C)NC1=NCC(C)S1 (stereo not given) | > 100 | – |
| Clc1ccc(C[P+](c2ccccc2)(c2ccccc2)c2ccccc2)c(Cl)c1 | 15.7 | – |
| COc1ccccc1CNCCCN1C(=O)c2ccc3c4c(ccc(c24)C1=O)C(=O)N(CCCNCCNCCCN)C3=O | 3.2 | 1.61 |
| COc1cc2oc(-c3ccc(O)cc3)c(OC)c(=O)c2c(O)c1OC | > 100 | 28.4 |
| C[C@@H]1Nc2cc(NC(=O)OCCF)nc(N)c2N=C1c1ccccc1 | 49 | – |

system: MCF7 breast; assay: growth of human tumour cells (NCI), 48 h

| SMILES | TGI [µM] | GI50 [µM] |
| --- | --- | --- |
| COCCCNc1nc(N)c(C#N)c(C#N)c1C#N | > 10 | – |
| CC1CCCCNC1=S (stereo not given) | > 10 | – |
| CCOC(=O)c1ccc(N[C@@H]2c3cc4c(cc3C(c3cc(OC)c(O)c(OC)c3)[C@H]3C(=O)OCC32)OCO4)cc1O (stereo not given in full) | > 79.3 | – |
| CCC(C)NC1=NCC(C)S1 (stereo not given) | > 100 | – |
| COc1ccccc1CNCCCN1C(=O)c2ccc3c4c(ccc(c24)C1=O)C(=O)N(CCCNCCNCCCN)C3=O | 2.22 | 0.422 |
| NNC(=O)c1c(SCc2ccccc2)nc2c3ccccc3ccn12 | > 100 | – |
| COc1cc2oc(-c3ccc(O)cc3)c(OC)c(=O)c2c(O)c1OC | > 100 | 51.4 |
| C[C@@H]1Nc2cc(NC(=O)OCCF)nc(N)c2N=C1c1ccccc1 | > 100 | < 0.0001 |

system: RPMI-8226 leukemia; assay: growth of human tumour cells (NCI), 48 h

| SMILES | TGI [µM] | GI50 [µM] |
| --- | --- | --- |
| COCCCNc1nc(N)c(C#N)c(C#N)c1C#N | > 10 | – |
| CCOC(=O)c1ccc(N[C@@H]2c3cc4c(cc3C(c3cc(OC)c(O)c(OC)c3)[C@H]3C(=O)OCC32)OCO4)cc1O (stereo not given in full) | 4.77 | – |
| CC1CC2=C(S(=O)(=O)c3ccccc3)CC(S(=O)(=O)c3ccccc3)(S(=O)(=O)c3ccccc3)CC21 (stereo not given) | > 100 | – |
| CCC(C)NC1=NCC(C)S1 (stereo not given) | > 100 | – |
| Clc1ccc(C[P+](c2ccccc2)(c2ccccc2)c2ccccc2)c(Cl)c1 | 5.31 | – |
| COc1ccccc1CNCCCN1C(=O)c2ccc3c4c(ccc(c24)C1=O)C(=O)N(CCCNCCNCCCN)C3=O | > 100 | 10.9 |
| C[C@@H]1Nc2cc(NC(=O)OCCF)nc(N)c2N=C1c1ccccc1 | < 0.0001 | – |

system: SNB-75 CNS; assay: growth of human tumour cells (NCI), 48 h

| SMILES | TGI [µM] | GI50 [µM] |
| --- | --- | --- |
| COCCCNc1nc(N)c(C#N)c(C#N)c1C#N | > 10 | – |
| CC1CCCCNC1=S (stereo not given) | > 10 | – |
| CCOC(=O)c1ccc(N[C@@H]2c3cc4c(cc3C(c3cc(OC)c(O)c(OC)c3)[C@H]3C(=O)OCC32)OCO4)cc1O (stereo not given in full) | > 23.2 | – |
| CC1CC2=C(S(=O)(=O)c3ccccc3)CC(S(=O)(=O)c3ccccc3)(S(=O)(=O)c3ccccc3)CC21 (stereo not given) | > 100 | – |
| CCC(C)NC1=NCC(C)S1 (stereo not given) | > 100 | – |
| Clc1ccc(C[P+](c2ccccc2)(c2ccccc2)c2ccccc2)c(Cl)c1 | 7.54 | – |
| COc1ccccc1CNCCCN1C(=O)c2ccc3c4c(ccc(c24)C1=O)C(=O)N(CCCNCCNCCCN)C3=O | 14.8 | 3.07 |
| COc1cc2oc(-c3ccc(O)cc3)c(OC)c(=O)c2c(O)c1OC | > 100 | 45.2 |
| C[C@@H]1Nc2cc(NC(=O)OCCF)nc(N)c2N=C1c1ccccc1 | > 100 | – |

system: OVCAR-3 ovarian; assay: growth of human tumour cells (NCI), 48 h

| SMILES | TGI [µM] | GI50 [µM] |
| --- | --- | --- |
| COCCCNc1nc(N)c(C#N)c(C#N)c1C#N | > 10 | – |
| CC1CCCCNC1=S (stereo not given) | > 10 | – |
| CCOC(=O)c1ccc(N[C@@H]2c3cc4c(cc3C(c3cc(OC)c(O)c(OC)c3)[C@H]3C(=O)OCC32)OCO4)cc1O (stereo not given in full) | 8.75 | – |
| CC1CC2=C(S(=O)(=O)c3ccccc3)CC(S(=O)(=O)c3ccccc3)(S(=O)(=O)c3ccccc3)CC21 (stereo not given) | > 100 | – |
| CCC(C)NC1=NCC(C)S1 (stereo not given) | > 100 | – |
| Clc1ccc(C[P+](c2ccccc2)(c2ccccc2)c2ccccc2)c(Cl)c1 | 13.8 | – |
| COc1ccccc1CNCCCN1C(=O)c2ccc3c4c(ccc(c24)C1=O)C(=O)N(CCCNCCNCCCN)C3=O | 5.65 | 2.16 |
| NNC(=O)c1c(SCc2ccccc2)nc2c3ccccc3ccn12 | 16 | – |
| COc1cc2oc(-c3ccc(O)cc3)c(OC)c(=O)c2c(O)c1OC | > 100 | > 100 |
| C[C@@H]1Nc2cc(NC(=O)OCCF)nc(N)c2N=C1c1ccccc1 | < 0.0001 | – |
